Reference: patent US20240124431A1, “2,3-DIHYDRO-4H-BENZO[B][1,4]OXAZIN-4-YL)(5-(PHENYL)-PYRIDIN-3-YL)METHANONE DERIVATIVES AND SIMILAR COMPOUNDS AS CYP11A1 INHIBITORS FOR THE TREATMENT OF PROSTATE CANCER” (ORION CORPORATION, priority 2020, published 2024)

Target: T1, CYP11A1 (Homo sapiens, UniProt P05108)
T1 construct: endogenous in cells; host or cells: NCI-H295R
T1 sequence (P05108 40-521): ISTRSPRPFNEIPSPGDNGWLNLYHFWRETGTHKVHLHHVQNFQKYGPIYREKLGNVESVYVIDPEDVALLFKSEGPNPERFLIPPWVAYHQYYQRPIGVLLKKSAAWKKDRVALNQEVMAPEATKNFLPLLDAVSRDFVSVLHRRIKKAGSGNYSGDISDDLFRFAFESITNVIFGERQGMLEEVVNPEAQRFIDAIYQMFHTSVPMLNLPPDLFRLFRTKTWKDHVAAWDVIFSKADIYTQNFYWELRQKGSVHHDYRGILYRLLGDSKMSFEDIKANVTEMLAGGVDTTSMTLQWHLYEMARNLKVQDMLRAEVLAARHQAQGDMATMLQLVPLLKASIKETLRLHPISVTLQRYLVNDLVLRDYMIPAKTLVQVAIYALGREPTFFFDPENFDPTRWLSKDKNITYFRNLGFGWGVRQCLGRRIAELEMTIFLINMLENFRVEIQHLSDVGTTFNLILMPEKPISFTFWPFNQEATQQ
Test: CYP11A1 inhibition: pregnenolone biosynthesis measured by ELISA in NCI-H295R cells
Format: cell-based
Conditions: NCI-H295R cells treated for 24 hours, 10 concentrations in duplicates, read-out: IC50 on CYP11A1 inhibition (Group)
Protocol: The ability of the test compounds to inhibit pregnenolone biosynthesis was measured by enzyme-linked immunosorbent assay (ELISA) detecting pregnenolone (Abnova Pregnenolone ELISA Kit, KA1912). […] To determine the half maximal inhibitory concentration (IC50) of the test compounds on CYP11A1 inhibition, the cells were treated for 24 hours with increasing concentrations of the test compound. The final DMSO concentration was 0.4%. Medium samples were diluted 1:6 and pregnenolone amounts determined with ELISA. Manufacturer's recommended protocols were used and pregnenolone (Sigma-Aldrich, P9129) standards were prepared in cell culture medium. Absorbance (A450) was measured with Envision plate reader (PerkinElmer). All the test compounds were studied at 10 concentrations in duplicates.

First: O=C(c1cncc(-c2ccc(F)cc2)c1)N1CCCc2ncccc21 [Compound 42, (3,4-Dihydro-1,5-naphthyridin-1(2H)-yl)(5-(4-fluorophenyl)pyridin-3-yl)-methanone]
Second: O=C(c1cncc(-c2ccccc2)c1)N1CCCc2ncccc21 [Compound 61, (3,4-Dihydro-1,5-naphthyridin-1(2H)-yl)(5-phenylpyridin-3-yl)methanone]
The IC50 of the first is lower: 51 to 200 nM for the first, 201 to 2500 nM for the second. The first is the more potent here.

First: Cn1cc(-c2cncc(C(=O)N3CCOc4ccccc43)n2)cn1 [Compound 43, (2,3-Dihydro-4H-benzo[b][1,4]oxazin-4-yl)(6-(1-methyl-1H-pyrazol-4-yl)-pyrazin-2-yl)methanone]
Second: Cn1nccc1-c1cncc(C(=O)N2CCOc3ccccc32)n1 [Compound 63, (2,3-Dihydro-4H-benzo[b][1,4]oxazin-4-yl)(6-(1-methyl-1H-pyrazol-5-yl)-pyrazin-2-yl)methanone]
The IC50 of the first is lower: 51 to 200 nM for the first, 201 to 2500 nM for the second. The first is the more potent here.

`O=C(c1cncc(-c2ccc(C(F)(F)F)cc2)c1)N1CCOc2ccccc21` [Compound 44, (2,3-Dihydro-4H-benzo[b][1,4]oxazin-4-yl)(5-(4-(trifluoromethyl)phenyl)pyridin-3-yl)methanone] and `O=C(c1cncc(-c2cccc(C(F)(F)F)c2)c1)N1CCOc2ccccc21` [Compound 48, (2,3-Dihydro-4H-benzo[b][1,4]oxazin-4-yl)(5-(3-(trifluoromethyl)phenyl)pyridin-3-yl)methanone] fall in the same range of IC50: 51 to 200 nM for the first, 51 to 200 nM for the second.

`COc1cc(F)ccc1-c1cncc(C(=O)N2CCOc3ccccc32)c1` [Compound 45, (2,3-Dihydro-4H-benzo[b][1,4]oxazin-4-yl)(5-(4-fluoro-2-methoxyphenyl)-pyridin-3-yl)methanone] and `COc1cccc(-c2cncc(C(=O)N3CCOc4ccccc43)c2)c1` [Compound 50, (2,3-Dihydro-4H-benzo[b][1,4]oxazin-4-yl)(5-(3-methoxyphenyl)pyridin-3-yl)-methanone] fall in the same range of IC50: 51 to 200 nM for the first, 51 to 200 nM for the second.

`O=S(=O)(c1cncc(-c2ccc(F)cc2)c1)N1CCOc2ccccc21` [Compound 46, 4-((5-(4-Fluorophenyl)pyridin-3-yl)sulfonyl)-3,4-dihydro-2H-benzo[b][1,4]-oxazine] and `O=S(=O)(c1cncc(-c2ccc(F)cc2)c1)N1CCCc2ccccc21` [Compound 47, 1-((5-(4-Fluorophenyl)pyridin-3-yl)sulfonyl)-1,2,3,4-tetrahydroquinoline] fall in the same range of IC50: 51 to 200 nM for the first, 51 to 200 nM for the second.

Compared with `O=C(c1cncc(-c2ccc(F)nc2)c1)N1CCOc2ccccc21` [Compound 49, (2,3-Dihydro-4H-benzo[b][1,4]oxazin-4-yl)(6′-fluoro-[3,3′-bipyridin]-5-yl)-methanone], `Cc1ccc(-c2cncc(C(=O)N3CCOc4ccccc43)c2)cc1` [Compound 71, (2,3-Dihydro-4H-benzo[b][1,4]oxazin-4-yl)(5-(p-tolyl)pyridin-3-yl)methanone] is higher in IC50: 51 to 200 nM for the first, 201 to 2500 nM for the second. The first is the more potent here.

`C=C(c1ccccc1)c1cncc(C(=O)N2CCCc3ccccc32)c1` [Compound 51, (3,4-Dihydroquinolin-1(2H)-yl)(5-(1-phenylvinyl)pyridin-3-yl)methanone] and `O=C(c1cnnc(-c2ccccc2)c1)N1CCCc2ccccc21` [Compound 52, (3,4-Dihydroquinolin-1(2H)-yl)(6-phenylpyridazin-4-yl)methanone] fall in the same range of IC50: 51 to 200 nM for the first, 51 to 200 nM for the second.

First: COc1ccc2c(c1)CCCN2C(=O)c1cncc(-c2ccccc2)c1 [Compound 53, (6-Methoxy-3,4-dihydroquinolin-1(2H)-yl)(5-phenylpyridin-3-yl)methanone]
Second: COc1ccc2c(c1)N(C(=O)c1cncc(-c3ccccc3)c1)CCC2 [Compound 69, (7-Methoxy-3,4-dihydroquinolin-1(2H)-yl)(5-phenylpyridin-3-yl)methanone]
The IC50 of the first is lower: 51 to 200 nM for the first, 201 to 2500 nM for the second.

First: O=C(c1cncc(-c2ccc(CO)cc2)c1)N1CCCc2ccccc21 [Compound 54, (3,4-Dihydroquinolin-1(2H)-yl)(5-(4-(hydroxymethyl)phenyl)pyridin-3-yl)-methanone]
Second: CN(C)Cc1ccc(-c2cncc(C(=O)N3CCCc4ccccc43)c2)cc1 [Compound 68, (3,4-Dihydroquinolin-1(2H)-yl)(5-(4-((dimethylamino)methyl)phenyl)pyridin-3-yl)methanone]
The IC50 of the first is lower: 51 to 200 nM for the first, 201 to 2500 nM for the second.

`O=C(c1cncc(-c2ccc(F)cc2)c1)N1CCOC2CCCCC21` (stereo not shown) [Compound 55, (5-(4-Fluorophenyl)pyridin-3-yl)(octahydro-4H-benzo[b][1,4]oxazin-4-yl)-methanone] and `O=C(c1cncc(-c2ccc(F)cc2)c1)N1CCO[C@H]2CCCC[C@@H]21` [Compound 56, (5-(4-Fluorophenyl)pyridin-3-yl)((4aS,8aS)-octahydro-4H-benzo[b][1,4]oxazin-4-yl)methanone] fall in the same range of IC50: 51 to 200 nM for the first, 51 to 200 nM for the second.

`O=C(c1cncc(-c2ccc(F)cc2)c1)N1CCO[C@@H]2CCCC[C@H]21` [Compound 57, (5-(4-Fluorophenyl)pyridin-3-yl)((4aR,8aR)-octahydro-4H-benzo[b][1,4]oxazin-4-yl)methanone] and `O=C(c1cncc(-c2ccc3c(c2)OCC3)c1)N1CCOC2CCCCC21` (stereo not shown) [Compound 72, (5-(2,3-Dihydrobenzofuran-6-yl)pyridin-3-yl)(octahydro-4H-benzo[b][1,4]-oxazin-4-yl)methanone] fall in the same range of IC50: 201 to 2500 nM for the first, 201 to 2500 nM for the second.

`O=C(c1cncc(-c2ccc(F)c([N+](=O)[O-])c2)c1)N1CCOc2ccccc21` [Compound 58, (2,3-Dihydro-4H-benzo[b][1,4]oxazin-4-yl)(5-(4-fluoro-3-nitrophenyl)pyridin-3-yl)methanone] and `O=C(c1cncc(-c2ccc(CO)cc2)c1)N1CCOc2ccccc21` [Compound 65, (2,3-Dihydro-4H-benzo[b][1,4]oxazin-4-yl)(5-(4-(hydroxymethyl)phenyl)pyridin-3-yl)methanone] fall in the same range of IC50: 201 to 2500 nM for the first, 201 to 2500 nM for the second.

`COc1cccc2c1CCCN2C(=O)c1cncc(-c2ccccc2)c1` [Compound 59, (5-Methoxy-3,4-dihydroquinolin-1(2H)-yl)(5-phenylpyridin-3-yl)methanone] and `COC(=O)c1ccc2c(c1)CCCN2C(=O)c1cncc(-c2ccccc2)c1` [Compound 67, Methyl 1-(5-phenylnicotinoyl)-1,2,3,4-tetrahydroquinoline-6-carboxylate] fall in the same range of IC50: 201 to 2500 nM for the first, 201 to 2500 nM for the second.

`O=C(c1cncc(-c2ccc(F)cc2)c1)N1CCc2ccccc21` [Compound 60, (5-(4-Fluorophenyl)pyridin-3-yl)(indolin-1-yl)methanone] and `O=C(c1cncc(-c2ccncc2)c1)N1CCCc2ccccc21` [Compound 62, [3,4′-Bipyridin]-5-yl(3,4-dihydroquinolin-1(2H)-yl)methanone] fall in the same range of IC50: 201 to 2500 nM for the first, 201 to 2500 nM for the second.

`CC1CCc2ccccc2N1C(=O)c1cnnc(-c2ccc(F)cc2)c1` (stereo not shown) [Compound 64, (6-(4-Fluorophenyl)pyridazin-4-yl)(2-methyl-3,4-dihydroquinolin-1(2H)-yl)-methanone] and `O=C(c1cncc(-c2cccnc2)c1)N1CCCc2ccccc21` [Compound 70, [3,3′-Bipyridin]-5-yl(3,4-dihydroquinolin-1(2H)-yl)methanone] fall in the same range of IC50: 201 to 2500 nM for the first, 201 to 2500 nM for the second.

Compound `O=C(c1cncc(C2=CCOCC2)c1)N1CCOc2ccccc21` [Compound 66, (5-(3,6-Dihydro-2H-pyran-4-yl)pyridin-3-yl)(2,3-dihydro-4H-benzo[b][1,4]-oxazin-4-yl)methanone] has an IC50 of 201 to 2500 nM.
